For one compound, Ki results are on record in ChEMBL document CHEMBL1131175, “Use of papain as a model for the structure-based design of cathepsin K inhibitors: crystal structures of two papain-inhibitor complexes demonstrate binding to S'-subsites” (J Med Chem, 1998).

This assay has as its target T1, Papain (Carica papaya, UniProt P00784).
T1 sequence (P00784 whole entry): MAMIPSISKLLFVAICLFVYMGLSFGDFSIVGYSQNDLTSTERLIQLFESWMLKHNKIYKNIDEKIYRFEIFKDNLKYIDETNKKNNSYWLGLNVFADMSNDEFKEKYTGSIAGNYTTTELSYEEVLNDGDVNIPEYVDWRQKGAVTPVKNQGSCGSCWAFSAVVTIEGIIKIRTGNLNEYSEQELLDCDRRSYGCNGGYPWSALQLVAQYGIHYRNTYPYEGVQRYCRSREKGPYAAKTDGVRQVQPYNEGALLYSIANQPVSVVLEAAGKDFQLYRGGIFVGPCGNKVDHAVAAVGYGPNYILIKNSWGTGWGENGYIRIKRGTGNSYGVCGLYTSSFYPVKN
The assay can be described thus: Inhibitory activity measured against papain. The following applies: read-out: Ki app.

For the compound `CC(C)C[C@H](NC(=O)OCc1ccccc1)C(=O)NCC(=O)CNC(=O)[C@H](CC(C)C)NC(=O)OCc1ccccc1`, the Ki is 10 µM.
